Assay results from patent publication US20100298141A1, “SUBSTITUTED PYRIDINE N-OXIDE HERBICIDES” (E. I. DU PONT DE NEMOURS AND COMPANY, priority 2007, published 2010).

Legend:
Assay in all cases: Test A pre-/postemergence greenhouse test
[1] = tested on: morningglory; type: in vivo, Ipomoea spp.; conditions: for Plant response rating, Morningglory: 0 to 100 scale where 0 is no effect and 100 is complete control; for Morningglory plant response rating: 0 to 100 scale
Excerpt: (§1) Seeds of barnyardgrass (Echinochloa crus-galli), crabgrass (Digitaria sanguinalis), giant foxtail (Setaria faberi), morningglory (Ipomoea spp.), redroot pigweed (Amaranthus retroflexus), velvetleaf (Abutilon theophrasti), wheat (Triticum aestivum), and corn (Zea mays) were planted into a blend of loam soil and sand and treated preemergence with a directed soil spray using test compounds formulated in a non-phytotoxic solvent mixture which included a surfactant. At the same time these species were also treated with postemergence applications of test compounds formulated in the same manner. Plants ranged in height from two to ten cm and were in the one- to two-leaf stage for the postemergence treatment. Treated plants and untreated controls were maintained in a greenhouse for approximately ten days, after which time all treated plants were compared to untreated controls and visually evaluated for injury. […] A dash (-) response means no test results.

[2] = tested on: corn; type: in vivo, Zea mays; conditions: for Plant response rating, Corn: 0 to 100 scale where 0 is no effect and 100 is complete control; for Corn plant response rating: 0 to 100 scale
Excerpt: as §1

[3] = tested on: crabgrass; type: in vivo, Digitaria sanguinalis; conditions: for Plant response rating, Crabgrass, Large: 0 to 100 scale where 0 is no effect and 100 is complete control; for Crabgrass, Large plant response rating: 0 to 100 scale
Excerpt: as §1

[4] = tested on: wheat; type: in vivo, Triticum aestivum; conditions: for Plant response rating, Wheat: 0 to 100 scale where 0 is no effect and 100 is complete control; for Wheat plant response rating: 0 to 100 scale
Excerpt: as §1

[5] = tested on: barnyardgrass; type: in vivo, Echinochloa crus-galli; conditions: for Plant response rating, Barnyardgrass: 0 to 100 scale where 0 is no effect and 100 is complete control; for Barnyardgrass plant response rating: 0 to 100 scale
Excerpt: as §1

[6] = tested on: velvetleaf; type: in vivo, Abutilon theophrasti; conditions: for Plant response rating, Velvetleaf: 0 to 100 scale where 0 is no effect and 100 is complete control; for Velvetleaf plant response rating: 0 to 100 scale
Excerpt: as §1

[7] = tested on: redroot pigweed; type: in vivo, Amaranthus retroflexus; conditions: for Plant response rating, Pigweed: 0 to 100 scale where 0 is no effect and 100 is complete control; for Pigweed plant response rating: 0 to 100 scale
Excerpt: as §1

[8] = tested on: giant foxtail; type: in vivo, Setaria faberi; conditions: for Plant response rating, Foxtail, Giant: 0 to 100 scale where 0 is no effect and 100 is complete control; for Foxtail, Giant plant response rating: 0 to 100 scale
Excerpt: as §1

[9] = Postemergence, 500 g ai/ha, 0 is no effect, 100 is complete control
[10] = Preemergence, 125 g ai/ha, 0 no effect, 100 complete control
[11] = Preemergence, 500 g ai/ha, 0 no effect, 100 complete control

| Structure (SMILES) | Plant response rating, Morningglory ([1]; Postemergence, 125 g ai/ha) | Morningglory plant response rating [1, 9] | Morningglory plant response rating [1, 10] | Morningglory plant response rating [1, 11] | Plant response rating, Corn ([2]; Postemergence, 125 g ai/ha) | Corn plant response rating [2, 9] | Corn plant response rating [2, 10] | Corn plant response rating [2, 11] | Plant response rating, Crabgrass, Large ([3]; Postemergence, 125 g ai/ha) | Crabgrass, Large plant response rating [3, 9] | Crabgrass, Large plant response rating [3, 10] | Crabgrass, Large plant response rating [3, 11] | Plant response rating, Wheat ([4]; Postemergence, 125 g ai/ha) | Wheat plant response rating [4, 9] | Wheat plant response rating [4, 10] | Wheat plant response rating [4, 11] | Plant response rating, Barnyardgrass ([5]; Postemergence, 125 g ai/ha) | Barnyardgrass plant response rating [5, 9] | Barnyardgrass plant response rating [5, 10] | Barnyardgrass plant response rating [5, 11] | further results |
| --- | --- | --- | --- | --- | --- | --- | --- | --- | --- | --- | --- | --- | --- | --- | --- | --- | --- | --- | --- | --- | --- |
| Cn1nc(C(F)(F)F)c(CS(=O)(=O)c2cc(C3CC3)cc[n+]2[O-])c1OC(F)F [Compound 118] | 20 | 60 | 40 | 100 | 0 | 0 | 0 | 20 | 40 | 80 | 90 | 100 | 40 | 60 | 40 | 60 | 50 | 70 | 70 | 100 | Plant response rating, Velvetleaf ([6]; Postemergence, 125 g ai/ha): 40; Velvetleaf plant response rating [6, 9]: 60; Velvetleaf plant response rating [6, 10]: 20; Velvetleaf plant response rating [6, 11]: 90; Plant response rating, Pigweed ([7]; Postemergence, 125 g ai/ha): 50; Pigweed plant response rating [7, 9]: 80; Pigweed plant response rating [7, 10]: 100; Pigweed plant response rating [7, 11]: 100; Plant response rating, Foxtail, Giant ([8]; Postemergence, 125 g ai/ha): 40; Foxtail, Giant plant response rating [8, 9]: 80; Foxtail, Giant plant response rating [8, 10]: 90; Foxtail, Giant plant response rating [8, 11]: 100 |
| CCCc1cc[n+]([O-])c([S+]([O-])Cc2c(C(F)(F)F)nn(C)c2OC(F)F)c1 (stereo not drawn) [Compound 116] | 60 | 90 | 100 | 100 | 60 | 90 | 60 | 90 | 70 | 80 | 90 | 100 | 50 | 60 | 50 | 80 | 70 | 80 | 70 | 100 | Plant response rating, Velvetleaf ([6]; Postemergence, 125 g ai/ha): 50; Velvetleaf plant response rating [6, 9]: 80; Velvetleaf plant response rating [6, 10]: 0; Velvetleaf plant response rating [6, 11]: 90; Plant response rating, Pigweed ([7]; Postemergence, 125 g ai/ha): 70; Pigweed plant response rating [7, 9]: 90; Pigweed plant response rating [7, 10]: 100; Pigweed plant response rating [7, 11]: 100; Plant response rating, Foxtail, Giant ([8]; Postemergence, 125 g ai/ha): 80; Foxtail, Giant plant response rating [8, 9]: 90; Foxtail, Giant plant response rating [8, 10]: 100; Foxtail, Giant plant response rating [8, 11]: 100 |
| CC(C)c1cc[n+]([O-])c(S(=O)(=O)Cc2c(C(F)(F)F)nn(C)c2OCC(F)(F)F)c1 [Compound 111, 4-(1-methylethyl)-2-[[[1-methyl-5-(2,2,2-trifluoroethoxy)-3-trifluoromethyl-1H-pyrazol-4-yl]methyl]sulfonyl]pyridine 1-oxide] | 20 | 60 | 80 | 100 | 0 | 40 | 0 | 50 | 40 | 70 | 60 | 90 | 50 | 60 | 50 | 80 | 50 | 70 | 80 | 100 | Plant response rating, Velvetleaf ([6]; Postemergence, 125 g ai/ha): 50; Velvetleaf plant response rating [6, 9]: 60; Velvetleaf plant response rating [6, 10]: 60; Velvetleaf plant response rating [6, 11]: 100; Plant response rating, Pigweed ([7]; Postemergence, 125 g ai/ha): 60; Pigweed plant response rating [7, 9]: 60; Pigweed plant response rating [7, 10]: 50; Pigweed plant response rating [7, 11]: 100; Plant response rating, Foxtail, Giant ([8]; Postemergence, 125 g ai/ha): 60; Foxtail, Giant plant response rating [8, 9]: 80; Foxtail, Giant plant response rating [8, 10]: 90; Foxtail, Giant plant response rating [8, 11]: 100 |
